From PubChem BioAssay (NCI)
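Exposure lasted 48 hours, with cells grown in 96-well plates and compounds tested at five concentrations. GI50: concentration for 50% inhibition of growth. TGI: total growth inhibition.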

Assays:
Assay in all cases: DTP human tumour cell line panel, 48 h
BT-549 breast = system: BT-549 breast
K-562 leukemia = system: K-562 leukemia
UO-31 renal = system: UO-31 renal
KM12 colon = system: KM12 colon
A549 NSCLC = system: A549 NSCLC
MALME-3M melanoma = system: MALME-3M melanoma
HT29 colon = system: HT29 colon
T-47D breast = system: T-47D breast
COLO 205 colon = system: COLO 205 colon
SK-OV-3 ovarian = system: SK-OV-3 ovarian
SF-268 CNS = system: SF-268 CNS

SMILES	TGI (BT-549 breast) [µM]	TGI (K-562 leukemia) [µM]	TGI (UO-31 renal) [µM]	TGI (KM12 colon) [µM]	TGI (A549 NSCLC) [µM]	TGI (MALME-3M melanoma) [µM]	TGI (HT29 colon) [µM]	TGI (T-47D breast) [µM]	TGI (COLO 205 colon) [µM]	TGI (SK-OV-3 ovarian) [µM]	TGI (SF-268 CNS) [µM]	GI50 (BT-549 breast) [µM]	GI50 (UO-31 renal) [µM]	GI50 (KM12 colon) [µM]	GI50 (A549 NSCLC) [µM]	GI50 (MALME-3M melanoma) [µM]	GI50 (HT29 colon) [µM]	GI50 (T-47D breast) [µM]	GI50 (COLO 205 colon) [µM]	GI50 (SK-OV-3 ovarian) [µM]
COC(=O)c1c(O)ccc2c1c1cc3ccccc3c(O)c1n2CCc1ccc(OC)c(OC)c1	> 100	> 100	> 100	> 100	> 100	> 100	18.6	> 100	30.4	> 100	> 100	–	–	–	–	–	–	–	–	–
CN1CCC(C(O)(c2ccccc2)c2ccc(Br)cc2)CC1 (stereo not given)	> 100	35.9	33.1	43.2	> 100	27.6	51.9	78.3	28.7	> 100	> 100	–	–	–	–	–	–	–	–	–
CCc1n[nH]c(=O)n1/N=C(\C)c1ccccc1	> 100	> 100	> 100	> 100	> 100	> 100	> 100	> 100	> 100	–	> 100	–	–	–	–	–	–	–	–	–
CN(CCc1ccccn1)c1ccc2c(c1)C(=O)c1ccccc1-2	> 100	> 100	> 100	> 100	> 100	> 100	> 100	> 100	> 100	> 100	> 100	–	–	–	–	–	–	–	–	–
CC(=O)Nc1cccc(N2C(=O)/C(=C\c3cccc(Oc4ccccc4)c3)SC2c2ccccc2)c1 (stereo not given)	> 100	> 100	> 100	> 100	> 100	> 100	> 100	> 100	> 100	> 100	> 100	–	–	–	–	–	–	–	–	–
C=C1C(O)C2(O)OCC34C(CC5C(C)=CC(=O)C(O)C5(C)C23)OC(=O)C(OC(=O)C/C=C/CCCCCCCC)C14 (stereo not given)	–	0.251	0.231	0.0751	0.0918	0.0229	0.115	–	0.0464	0.606	0.035	–	–	–	–	–	–	–	–	–
CCOc1nc2c(N3CCCC3)nc(N3CCNCC3)nc2nc1NCc1ccccc1	3.51	2.61	2.6	3.08	4.26	3.3	2.6	3.13	1.93	3.26	3.03	–	–	–	–	–	–	–	–	–
O=C(O)c1cc2ccccc2c(N=Nc2ccc(S(=O)(=O)Nc3ncccn3)cc2)c1O	> 100	> 100	> 100	> 100	> 100	> 100	> 100	–	> 100	> 100	> 100	–	–	–	–	–	–	–	–	–
O=C(Cc1nc2ccccc2[nH]c1=O)c1c[nH]c2ccccc12	29.6	> 100	33.7	58	> 100	> 100	27.3	47.6	28.9	47.6	> 100	–	–	–	–	–	–	–	–	–
CC(Oc1ccccc1Cl)C(=O)NN1C(=O)CC(=O)N(c2ccc(Cl)cc2)C1=S (stereo not given)	> 100	> 100	> 100	> 100	> 100	> 100	> 100	> 100	> 100	> 100	> 100	–	–	–	–	–	–	–	–	–
COc1cccc(C23CCN(C)C(CC(O)C2)C3)c1OC (stereo not given)	> 100	> 100	> 100	> 100	> 100	> 100	> 100	> 100	> 100	> 100	> 100	–	–	–	–	–	–	–	–	–
C/C(C=O)=C/[C@@]1(C)O[C@@H](C)[C@@](C)(O)[C@@H]1O	–	> 100	4.71	> 100	> 100	> 100	> 100	> 100	> 100	> 100	63.7	–	–	–	–	–	–	–	–	–
CN(C)c1ccc(-c2ccc(-c3ccc(C(=N)N)cn3)o2)cc1	3.5	–	2.91	3.01	3.75	3.93	1.74	3.67	2.28	3.28	–	1.8	1.48	1.43	1.89	2.04	0.479	1.73	1.04	1.88
C#C[C@]1(O)CC[C@H]2[C@@H]3CCc4cc(O)ccc4[C@H]3CC[C@@]21C	–	–	–	> 100	> 100	> 100	54.4	–	92.7	79.7	> 100	–	–	–	–	–	–	–	–	–
COc1ccc2nc3ccc(OC)cc3c(SCCCl)c2c1	> 100	> 46.5	> 100	> 71	> 100	> 100	> 52.4	> 97.2	> 72.3	> 100	> 100	–	–	–	–	–	–	–	–	–
Cc1c(-c2ccccc2)[nH]c2cn[nH]c(=O)c12	> 100	> 100	> 100	> 100	> 100	> 100	> 100	–	> 100	> 100	> 100	–	–	–	–	–	–	–	–	–
O=[N+]([O-])c1ccc(N=Nc2c(O)[nH]c3ccccc23)c([N+](=O)[O-])c1	34.1	> 100	36.6	> 100	28	–	81.7	52.8	71.2	32.4	> 100	–	–	–	–	–	–	–	–	–
Cc1ccc(-c2cc(-c3ccc(Cl)cc3)nc(/N=C3\C(=O)N(CN(C)C)c4ccccc43)n2)cc1	> 100	> 100	> 100	> 100	> 100	> 100	> 100	> 100	> 100	> 100	> 100	–	–	–	–	–	–	–	–	–
O=C1c2c(Br)sc(Br)c2[C@@H](O)[C@H]1O	35.6	> 36.8	32.3	45.1	45	40.6	40.4	43.7	28.5	29.4	24.7	–	–	–	–	–	–	–	–	–
